In patent publication US20070275968A1, “Substituted Biphenyl Derivative” (priority 2004, published 2007):

Experiments:
[1] = system: NRK-49F cells; test: Collagen synthesis inhibition test; type: cell-based; conditions: Rattus norvegicus, 25 ng/mL TGF-β added, cultured about 44 hr, 3H-labeled proline taken into collagen, no TGF-β = 100% inhibition, no test compound = 0% inhibition, read-out: Collagen synthesis inhibiting activity IC50
Protocol: Collagen Synthesis Inhibition Test
Collagen synthesis inhibiting activity was evaluated by the following assay.
NRK-49F cells (Dainippon Pharmaceutical) are seeded into a 96-well plate. After becoming confluent, the medium is changed to a serum-free Dulbecco's modified MEM medium (Invitrogen) containing 5 μg/mL insulin, 5 μg/mL transferin, and 5 ng/mL selenious acid. One day later, the medium is changed to a serum-free Dulbecco's modified MEM medium (80 μl) containing 10 ng/mL IGF-II (Sigma) and 50 μg/mL L-ascorbic acid (Sigma), and a ten times concentration of a test compound (10 μl) is added thereto. Thirty minutes later, 25 ng/mL TGF-β (R&D System: 10 μL) is added to the medium, and the cells are cultured for about 44 hr. Twenty four hours before the termination of the culturing, ^3H-labeled proline (Amersham: 1 μCi) is added so as to be taken into collagen in the cells. When the culturing is terminated, 30% trichloroacetic acid (50 μL) is added to the medium. After leaving for 20 min, proteins are precipitated by centrifugation at 3000 rpm for 10 min. The supernatant is removed, and the residue is twice washed with 200 μL of a washing solution (ethanol:ether=3:1). The precipitate is air-dried, and the washing solution is sufficiently removed. After addition of 60 μL of a collagenase solution (2 mg/mL collagenase VII (Sigma), 50 mM Tris-HCl (pH 7.4), 5 mM CaCl2), the resulting mixture is treated at 37° C. for 2 hr to decompose collagen. Then, 90 μL of 15% trichloroacetic acid and 5% tannic acid are added thereto. The resulting mixture is left for 20 min and then centrifuged at 3000 rpm for 10 min. The supernatant (50 μL) is transferred to LumaPlate (PerkinElmer Lifescience) and is air-dried. Then, the amount of ^3H is measured by a Top Count.

IC50 [1] [nM]	melting point [°C]	Structure (SMILES)
50	77 to 97	Cc1cccc(-c2nc(C(C)C)[nH]c2-c2ccc(F)c(-c3cnn(C)c3)c2)n1 [Example 110, 2-{5-[4-Fluoro-3-(1-methyl-1H-pyrazol-4-yl)phenyl]-2-isopropyl-1H-imidazol-4-yl}-6-methylpyridine]
110	134 to 138	Cc1cccc(-c2n[nH]cc2-c2ccc(F)c(-c3cn4c(n3)S(=O)(=O)CC4)c2)n1 [Example 212, 6-{2-Fluoro-5-[3-(6-methylpyridin-2-yl)-1H-pyrazol-4-yl]phenyl}-2,3-dihydroimidazo[2,1-b][1,3]thiazole 1,1-dioxide]
80	107 to 109	Cc1cccc(-c2n[nH]cc2-c2ccc(F)c(-c3ccc4c(c3)CCS4(=O)=O)c2)n1 [Example 146, 2-{4-[3-(1,1-Dioxido-2,3-dihydro-1-benzothien-5-yl)-4-fluorophenyl]-1H-pyrazol-3-yl}-6-methylpyridine]
40	88 to 90	Cc1cccc(-c2n[nH]cc2-c2ccc(F)c(-c3ccc(N4CCOCC4)cn3)c2)n1 [Example 179, 4-(6-{2-Fluoro-5-[3-(6-methylpyridin-2-yl)-1H-pyrazol-4-yl]phenyl}pyridin-3-yl)morpholine]
